Reference: ChEMBL document CHEMBL3885881, “DrugMatrix”
“And” between values parts separate entries of the source, which are not always exact repeats. Equal entries are not always repeated.

Species: Rattus norvegicus
Assay: DrugMatrix - Regimen: Daily Repeat
Type: toxicity, organism-based, Sprague-Dawley
Parameters: regimen Daily Repeat, gender Male, age 6-8 weeks
Conditions: in vivo, ip, route intraperitoneal, vehicle 100 % SALINE; for ABSOLUTE BASOPHIL / ABSOLUTE EOSINOPHIL / ABSOLUTE LYMPHOCYTE / ABSOLUTE MONOCYTE / ABSOLUTE SEGMENTED NEUTROPHIL / BASOPHIL / EOSINOPHIL / ERYTHROCYTE COUNT / HEMATOCRIT / HEMOGLOBIN / LEUKOCYTE COUNT / LYMPHOCYTE / MEAN CORPUSCULAR HEMOGLOBIN / MEAN CORPUSCULAR HEMOGLOBIN CONCENTRATION / MEAN CORPUSCULAR VOLUME / MONOCYTE / NEUTROPHIL / PLATELET COUNT: tissue Blood; for ALANINE AMINOTRANSFERASE / ALBUMIN / ALKALINE PHOSPHATASE / ASPARTATE AMINOTRANSFERASE / BLOOD UREA NITROGEN / CARBON DIOXIDE / CHOLESTEROL / CREATINE PHOSPHOKINASE / CREATININE / GLUCOSE / LACTATE DEHYDROGENASE / LIPASE / PHOSPHORUS / POTASSIUM / SODIUM / TOTAL BILIRUBIN / TOTAL PROTEIN / URIC ACID / CHLORIDE: tissue Plasma
[1] = 0 mg/kg, 120 h, dose level Control, time 5 day
[2] = 0 mg/kg, […], dose level Control, time 14 day
[3] = 0 mg/kg, […], dose level Control, time 28 day
[4] = 8 mg/kg, 120 h, dose level High, time 5 day
[5] = 8 mg/kg, […], dose level High, time 14 day
[6] = 8 mg/kg, […], dose level High, time 28 day

## GOLD SODIUM THIOMALATE
[1]
  ABSOLUTE BASOPHIL: 32 cells/µL
  ABSOLUTE EOSINOPHIL: 110 cells/µL
  ABSOLUTE LYMPHOCYTE: 6630 cells/µL
  ABSOLUTE MONOCYTE: 140 cells/µL
  ABSOLUTE SEGMENTED NEUTROPHIL: 1170 cells/µL
  BASOPHIL: 0.38% and 0.35%
  EOSINOPHIL: 1.28% and 0.62%
  ERYTHROCYTE COUNT: 7.45 x10E6/uL and 7.26 x10E6/uL
  HEMATOCRIT: 45.74% and 47.97%
  HEMOGLOBIN: 14.72 G/DL and 15.38 G/DL
  LEUKOCYTE COUNT: 8.11 x10E3/uL and 8.68 x10E3/uL
  LYMPHOCYTE: 81.3% and 86.77%
  MEAN CORPUSCULAR HEMOGLOBIN: 19.76 pg and 21.18 pg
  MEAN CORPUSCULAR HEMOGLOBIN CONCENTRATION: 32.16 G/DL and 32.05 G/DL
  MEAN CORPUSCULAR VOLUME: 61.38 fL and 66.15 fL
  MONOCYTE: 1.76% and 1.57%
  NEUTROPHIL: 14.9% and 9.53%
  PLATELET COUNT: 1322.4 x10E3/uL and 1786 x10E3/uL
  ALANINE AMINOTRANSFERASE: 25.8 u/L and 20.5 u/L
  ALBUMIN: 3.64 G/DL and 4.35 G/DL
  ALKALINE PHOSPHATASE: 300 u/L
  ASPARTATE AMINOTRANSFERASE: 81.4 u/L and 86.75 u/L
  BLOOD UREA NITROGEN: 14.4 mg/dL and 17 mg/dL
  CARBON DIOXIDE: 29 mmol/L
  CHOLESTEROL: 69.2 mg/dL and 51.25 mg/dL
  CREATINE PHOSPHOKINASE: 303.2 u/L and 384.75 u/L
  CREATININE: 0.56 mg/dL and 0.47 mg/dL
  GLUCOSE: 125.4 mg/dL and 128.75 mg/dL
  LACTATE DEHYDROGENASE: 105.4 u/L and 145 u/L
  LIPASE: 22.4 u/L and 13.25 u/L
  PHOSPHORUS: 11.8 mg/dL
  POTASSIUM: 5.52 MEQ/L and 6.58 MEQ/L
  SODIUM: 147 MEQ/L and 151 MEQ/L
  TOTAL BILIRUBIN: 0.2 mg/dL and 0.33 mg/dL
  TOTAL PROTEIN: 6.1 G/DL and 6.53 G/DL
  URIC ACID: 1.06 mg/dL and 1.95 mg/dL
[2]
  ABSOLUTE BASOPHIL: 130 cells/µL
  ABSOLUTE EOSINOPHIL: 140 cells/µL
  ABSOLUTE LYMPHOCYTE: 13500 cells/µL
  ABSOLUTE MONOCYTE: 400 cells/µL
  ABSOLUTE SEGMENTED NEUTROPHIL: 2330 cells/µL
  HEMATOCRIT: 45.98%
  HEMOGLOBIN: 15.17 G/DL
  MEAN CORPUSCULAR VOLUME: 59.4 fL
  NEUTROPHIL: 14.14%
  ALBUMIN: 3.66 G/DL
  CARBON DIOXIDE: 25 mmol/L
  CHLORIDE: 107 MEQ/L
  CREATINE PHOSPHOKINASE: 410.25 u/L
  SODIUM: 149.2 MEQ/L
  URIC ACID: 0.94 mg/dL
[3]
  ABSOLUTE BASOPHIL: 91 cells/µL
  ABSOLUTE EOSINOPHIL: 110 cells/µL
  ABSOLUTE LYMPHOCYTE: 9910 cells/µL
  ABSOLUTE MONOCYTE: 210 cells/µL
  ABSOLUTE SEGMENTED NEUTROPHIL: 1560 cells/µL
  BASOPHIL: 0.77%
  EOSINOPHIL: 0.92%
  ERYTHROCYTE COUNT: 8.21 x10E6/uL
  HEMATOCRIT: 47.53%
  HEMOGLOBIN: 15.65 G/DL
  LEUKOCYTE COUNT: 11.91 x10E3/uL
  LYMPHOCYTE: 83.34%
  MEAN CORPUSCULAR HEMOGLOBIN: 19.07 pg
  MEAN CORPUSCULAR HEMOGLOBIN CONCENTRATION: 32.93 G/DL
  MEAN CORPUSCULAR VOLUME: 57.9 fL
  MONOCYTE: 1.68%
  NEUTROPHIL: 12.97%
  PLATELET COUNT: 1323.8 x10E3/uL
  ALANINE AMINOTRANSFERASE: 30 u/L
  ALBUMIN: 3.71 G/DL
  ALKALINE PHOSPHATASE: 186.8 u/L
  ASPARTATE AMINOTRANSFERASE: 78.2 u/L
  BLOOD UREA NITROGEN: 14.2 mg/dL
  CHOLESTEROL: 44.9 mg/dL
  CREATINE PHOSPHOKINASE: 334.3 u/L
  CREATININE: 0.6 mg/dL
  GLUCOSE: 147.2 mg/dL
  LACTATE DEHYDROGENASE: 123.1 u/L
  LIPASE: 9.6 u/L
  PHOSPHORUS: 10.01 mg/dL
  POTASSIUM: 6.57 MEQ/L
  SODIUM: 149.5 MEQ/L
  TOTAL BILIRUBIN: 0.21 mg/dL
  TOTAL PROTEIN: 6.66 G/DL
  URIC ACID: 1.26 mg/dL
[4]
  ABSOLUTE BASOPHIL: 130 cells/µL
  ABSOLUTE EOSINOPHIL: 56 cells/µL
  ABSOLUTE LYMPHOCYTE: 9210 cells/µL
  ABSOLUTE MONOCYTE: 260 cells/µL
  ABSOLUTE SEGMENTED NEUTROPHIL: 1220 cells/µL
  BASOPHIL: 1.14% and 0.55%
  EOSINOPHIL: 0.52% and 0.85%
  ERYTHROCYTE COUNT: 7.23 x10E6/uL and 7.38 x10E6/uL
  HEMATOCRIT: 44.18% and 47.65%
  LEUKOCYTE COUNT: 10.96 x10E3/uL and 5.99 x10E3/uL
  LYMPHOCYTE: 83.86% and 79.83%
  MEAN CORPUSCULAR HEMOGLOBIN: 19.96 pg and 20.48 pg
  MEAN CORPUSCULAR HEMOGLOBIN CONCENTRATION: 32.6 G/DL and 31.73 G/DL
  MEAN CORPUSCULAR VOLUME: 64.58 fL
  MONOCYTE: 2.34% and 2.35%
  NEUTROPHIL: 11.32% and 14.95%
  PLATELET COUNT: 1423.2 x10E3/uL and 1443.75 x10E3/uL
  ALANINE AMINOTRANSFERASE: 32.8 u/L and 21 u/L
  ALBUMIN: 3.28 G/DL
  ALKALINE PHOSPHATASE: 176.2 u/L and 278.5 u/L
  ASPARTATE AMINOTRANSFERASE: 100.4 u/L and 71 u/L
  BLOOD UREA NITROGEN: 18.2 mg/dL and 15.25 mg/dL
  CARBON DIOXIDE: 27 mmol/L
  CHLORIDE: 106.6 MEQ/L and 106.75 MEQ/L
  CHOLESTEROL: 68.4 mg/dL and 52.25 mg/dL
  CREATINE PHOSPHOKINASE: 159.5 u/L and 253 u/L
  CREATININE: 0.52 mg/dL and 0.45 mg/dL
  GLUCOSE: 124.5 mg/dL
  LACTATE DEHYDROGENASE: 57.5 u/L and 107.5 u/L
  LIPASE: 28.8 u/L and 9.75 u/L
  PHOSPHORUS: 9.6 mg/dL and 11.85 mg/dL
  POTASSIUM: 5.78 MEQ/L and 5.65 MEQ/L
  SODIUM: 150.8 MEQ/L and 151.5 MEQ/L
  TOTAL BILIRUBIN: 0.18 mg/dL and 0.32 mg/dL
  TOTAL PROTEIN: 5.68 G/DL and 6.25 G/DL
  URIC ACID: 1.38 mg/dL and 2.12 mg/dL
[5]
  ABSOLUTE BASOPHIL: 34 cells/µL
  ABSOLUTE EOSINOPHIL: 82 cells/µL
  ABSOLUTE LYMPHOCYTE: 8830 cells/µL
  ABSOLUTE MONOCYTE: 250 cells/µL
  ABSOLUTE SEGMENTED NEUTROPHIL: 1460 cells/µL
  MEAN CORPUSCULAR HEMOGLOBIN: 20.12 pg
  CARBON DIOXIDE: 25 mmol/L
  CHLORIDE: 108.6 MEQ/L
[6]
  ABSOLUTE BASOPHIL: 110 cells/µL
  ABSOLUTE EOSINOPHIL: 71 cells/µL
  ABSOLUTE LYMPHOCYTE: 9610 cells/µL
  ABSOLUTE MONOCYTE: 180 cells/µL
  ABSOLUTE SEGMENTED NEUTROPHIL: 1180 cells/µL
  BASOPHIL: 0.95%
  EOSINOPHIL: 0.64%
  ERYTHROCYTE COUNT: 7.92 x10E6/uL
  HEMATOCRIT: 45.49%
  LEUKOCYTE COUNT: 11.2 x10E3/uL
  LYMPHOCYTE: 85.54%
  MEAN CORPUSCULAR HEMOGLOBIN: 18.71 pg
  MEAN CORPUSCULAR HEMOGLOBIN CONCENTRATION: 32.56 G/DL
  MEAN CORPUSCULAR VOLUME: 57.51 fL
  MONOCYTE: 1.65%
  NEUTROPHIL: 10.78%
  PLATELET COUNT: 1410.8 x10E3/uL
  ALANINE AMINOTRANSFERASE: 33.3 u/L
  ALBUMIN: 3.51 G/DL
  ALKALINE PHOSPHATASE: 144.9 u/L
  ASPARTATE AMINOTRANSFERASE: 73.8 u/L
  BLOOD UREA NITROGEN: 12.7 mg/dL
  CHLORIDE: 107.3 MEQ/L
  CHOLESTEROL: 48.9 mg/dL
  CREATINE PHOSPHOKINASE: 237.4 u/L
  CREATININE: 0.61 mg/dL
  GLUCOSE: 141.1 mg/dL
  LACTATE DEHYDROGENASE: 100.8 u/L
  LIPASE: 13.2 u/L
  PHOSPHORUS: 9.57 mg/dL
  POTASSIUM: 6.28 MEQ/L
  SODIUM: 150 MEQ/L
  TOTAL BILIRUBIN: 0.2 mg/dL
  TOTAL PROTEIN: 6.4 G/DL
  URIC ACID: 1.22 mg/dL
